Experimental findings from patent publication US20090028925A1, “Novel Phosphinic Acid-Containing Thyromimetics” (priority 2005, published 2009) are described below.

As usually defined, the pKi is the negative decadic logarithm of the Ki, by convention in mol/L.

Data set [1] is described as follows: Subacute study in normal rats, continuous infusion: heart weight. The class given is in vivo, rats (Sprague-Dawley). To be noted: continuous infusion 1 mg/kg/day. The source says:
Efficacy endpoints include serum cholesterol, liver mitochondrial glycerol phosphate dehydrogenase (mGPDH) activity and the expression of relevant liver genes (e.g., the LDL-receptor, apoB, cpt-1, spot14 and apoAI). Safety parameters include heart weight, heart rate, heart mGPDH activity, the expression and key genes involved in cardiac structure and function (e.g., Serca2, HCN2, Kv1.5, MHCα, MHCβ, Alpha1c), and standard plasma chemistry analysis (liver enzymes, electrolytes, creatinine). Endocrine effects are monitored by analysis of serum thyroid stimulating hormone (TSH). [Taylor et al., Mol Pharmacol 52(3): 542-7 (1997); Weitzel et al., Eur J Biochem 268(14):4095-4103 (2001)]
Normal rats (Sprague-Dawley) were maintained on a standard diet. […] The compounds were brought up to an appropriate volume using PBS and BSA to maintain solubility within the pump. The compounds were chemically stable in the excipient at 37° C. for 7 days.
Values are expressed as percent of control. (Table 4)

For data set [2], the target named is T1, human thyroid hormone receptors TRβ1 (Homo sapiens, UniProt P10828).
T1 construct: made in house; host or cells: Sf9 insect cells (baculovirus)
T1 sequence (P10828 1-461): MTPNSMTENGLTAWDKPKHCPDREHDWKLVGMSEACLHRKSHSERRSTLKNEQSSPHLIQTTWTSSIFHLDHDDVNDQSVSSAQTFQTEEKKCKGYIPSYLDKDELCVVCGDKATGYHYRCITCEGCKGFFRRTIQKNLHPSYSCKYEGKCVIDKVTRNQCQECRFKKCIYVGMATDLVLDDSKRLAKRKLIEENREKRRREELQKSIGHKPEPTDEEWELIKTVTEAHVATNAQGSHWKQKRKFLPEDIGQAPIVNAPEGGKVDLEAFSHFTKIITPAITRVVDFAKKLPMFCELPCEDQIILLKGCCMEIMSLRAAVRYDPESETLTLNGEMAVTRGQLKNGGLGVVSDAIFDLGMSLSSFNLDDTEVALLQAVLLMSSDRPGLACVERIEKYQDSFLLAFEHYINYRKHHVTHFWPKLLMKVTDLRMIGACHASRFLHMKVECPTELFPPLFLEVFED
T1 sequence (P19793 1-462 partner): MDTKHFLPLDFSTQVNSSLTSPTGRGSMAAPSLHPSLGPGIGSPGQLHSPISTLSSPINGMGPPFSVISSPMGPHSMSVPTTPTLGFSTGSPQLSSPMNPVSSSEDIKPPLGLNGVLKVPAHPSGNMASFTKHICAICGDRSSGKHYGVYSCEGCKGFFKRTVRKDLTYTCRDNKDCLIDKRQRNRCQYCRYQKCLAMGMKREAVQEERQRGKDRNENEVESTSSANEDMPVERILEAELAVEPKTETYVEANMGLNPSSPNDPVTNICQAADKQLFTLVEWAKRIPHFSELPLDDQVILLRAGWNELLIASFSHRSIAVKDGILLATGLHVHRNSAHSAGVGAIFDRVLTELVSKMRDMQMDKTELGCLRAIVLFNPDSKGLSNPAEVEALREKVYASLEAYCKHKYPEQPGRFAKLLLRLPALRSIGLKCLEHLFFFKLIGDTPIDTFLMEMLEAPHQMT
The data set can be described thus: Receptor binding to TRβ1 (gel filtration and scintillation proximity assay, labeled T3). To be noted: SPA data; read-out: Ki TRβ. In general terms: SEC sorts molecules by how far they enter the pores of the column.

pKi: −log10 of the molar value.

As for `Cc1cc(OCP(=O)(O)O)cc(C)c1Cc1ccc(O)c(C(C)C)c1` [Compound 7, [3,5-dimethyl-4-(4′-hydroxy-3′-iso-propylbenzyl)phenoxy]methylphosphonic acid], in data set [1], the “Heart Weight” value is on record as 108% of control and the cardiac hypertrophy entry is “did not cause cardiac hypertrophy”. The pKi in data set [2] is 8.48.
